According to patent US9359372B2, “Hexahydrodibenzo[a,g]quinolizine compound, preparation method thereof, pharmaceutical composition and use thereof” (SHANGHAI INSTITUTE OF MATERIA MEDICA, CHINESE ACADEMY OF …, priority 2011, dated 2016):

Legend:
D2 dopamine receptor = D2 dopamine receptor (Rattus norvegicus (Rat), UniProt P61169); assay: Affinity on dopamine D2 receptor, competition with [3H] Spiperone; format: binding; design: D2 receptor inhibition ratio (%): concentration or dose not given beside the values; details: for affinity on dopamine D2 receptor (in words): summary of the tables
Procedure: (§1) (1). Determination of the Affinity of Hexahydrodibenzo[a,g]Quinolizine Compound of General Formula I and Derivatives Thereof on Dopamine D1, Dopamine D2, 5-HT1A, and 5-HT2A Receptor.
(§2) 1) The Experimental Method
(§3) Different concentrations (10^−5 M-10^−11 M) of the compound of the invention and corresponding isotope receptor ligand as well as receptor protein were loaded into the reaction tube and incubated in 30° C. water bath for 60 minutes. The reaction was terminated in a refrigerator. The reaction mixture was put in a Millipore filter (millipore) cell sample collector, filtered through suction filtration using GF/C glass fiber filter paper, and dried. The resulting sample was placed into 0.5 mL tube. 500 μL liquid scintillation fluid was added and intensity of radioactivity was determined by counting.
(§4) (1) Construction of receptor and materials for cell culture: Escherichia coli. DH5α strain; insect virus transfer vector pVL1393 plasmid; BaculoGold linear Chinese baculovirus DNA, purchased from ParMingen company; mkD1RcDNA; rD2R cDNA; various restriction endonucleases, TaqDNA polymerase, T4 ligase, etc., LB medium; insect cell culture TNM-FH.
(§5) (2) the Experimental Materials for Receptor Binding
(§6) Firstly, the above […] are dissolved in DMSO and then diluted with double distilled water to the appropriate concentration (10^−5 M-10^−11 M).
(§7) (+) Butaclamo purchased from RBI company, GF/C glass fiber filter paper purchased from Whatman Co., scintillation fluid (dopamine D1, D2 receptors)/liposoluble scintillation fluid (5-HT1A, 5-HT2A receptor), Beckman LS-6500 multi-function liquid scintillation counter.

dopamine D2 receptor [1] = target: T1, dopamine D2 receptor (Homo sapiens (Human), UniProt P14416); assay: Inhibition property on dopamine D2 receptor, cAMP detection in CHO cells stably expressing D2 receptor; format: cell-based; details: 10 μM Forskoline and 10 μM dopamine, read-out: D2 receptor Antagonist IC50
Procedure: 2. Determination of the Inhibition Property of Hexahydrodibenzo[a,g]Quinolizine Compound of General Formula I and Derivatives Thereof on Dopamine D2 Receptor.
(1) The Experimental Method
Each medicament was dissolved in serum-free F12 culture medium containing 100 μM of IBMX. CHO cells which can stably express D2 receptor were pre-incubated at 37° C. for 10 min, and then 10 μM Forskoline and 10 μM Dopanie were added at the same time to react for 10 min. 100 μL, of pre-cooled 1 M of HClO4 was added and the reaction was terminated at 4° C. for 1 hour. 20 μL of 2 M K2CO3 was added to neutralize the reaction. […] A certain amount of the supernatant was taken for cAMP detection.

dopamine D1 receptor = dopamine D1 receptor (Macaca mulatta (Rhesus macaque), UniProt O77680); assay: Affinity on dopamine D1 receptor, competition with [3H] SCH23390; format: binding; design: D1 receptor inhibition ratio (%): concentration or dose not given beside the values; details: for affinity on dopamine D1 receptor (in words): summary of the tables
Procedure: as §1, §2, §3, §4, §5, §6, §7

D1 receptor = D1 receptor (Homo sapiens (Human), UniProt P21728); assay: [35S]GTPγS binding assay for D1 receptor; format: biochemical
5-HT1A receptor = 5-HT1A receptor (Homo sapiens (Human), UniProt P08908); assay: Affinity on 5-HT1A receptor, competition with [3H] 8-OH-DPAT; format: binding
Procedure: as §1, §2, §3, §5
8-OH-DPAT; 5-HT1A receptor protein expressed in HEK-293 cells;
as §6, §7

D1 dopamine receptors = D1 dopamine receptors (Homo sapiens (Human), UniProt P21728); assay: Radioligand binding assay, D1 receptor, HEK293T membrane homogenates; details: HEK293T membranes, [3H]SCH23390
Procedure: (§8) The affinity of compounds to D1 and D2 dopamine receptors were determined by competition binding assays. Membrane homogenates of HEK293T cells were stably transfected with D1, or D2 receptors. […] The reaction was started by addition of membranes ([…]) and stopped by rapid filtration through Whatman GF/B glassfiber filter and subsequently washed with cold buffer (50 mM Tris, 5 mM EDTA, pH 7.4) using a Brandel 24-well cell harvester. Scintillation cocktail was added and the radioactivity was determined in a MicroBeta liquid scintillation counter. The IC50 and Ki values were calculated by nonlinear regression (PRISM, Graphpad, San Diego, Calif.) using a sigmoidal function.

dopamine D2 receptor [2] = target: T1, dopamine D2 receptor; assay: Radioligand binding assay, D2 receptor, HEK293T membrane homogenates; design: D2 Inhibition (%): concentration or dose not given beside the values; details: HEK293T membranes, [3H]Spiperone
Procedure: as §8

5-HT2A receptor = 5-HT2A receptor (Homo sapiens (Human), UniProt P28223); assay: Affinity on 5-HT2A receptor, competition with [3H]-Ketanserin; format: binding
Procedure: as §1, §2, §3, §5, §6, §7

[3] = according to CN101037436; cited from earlier work

Sequence of D2 dopamine receptor (P61169 whole entry): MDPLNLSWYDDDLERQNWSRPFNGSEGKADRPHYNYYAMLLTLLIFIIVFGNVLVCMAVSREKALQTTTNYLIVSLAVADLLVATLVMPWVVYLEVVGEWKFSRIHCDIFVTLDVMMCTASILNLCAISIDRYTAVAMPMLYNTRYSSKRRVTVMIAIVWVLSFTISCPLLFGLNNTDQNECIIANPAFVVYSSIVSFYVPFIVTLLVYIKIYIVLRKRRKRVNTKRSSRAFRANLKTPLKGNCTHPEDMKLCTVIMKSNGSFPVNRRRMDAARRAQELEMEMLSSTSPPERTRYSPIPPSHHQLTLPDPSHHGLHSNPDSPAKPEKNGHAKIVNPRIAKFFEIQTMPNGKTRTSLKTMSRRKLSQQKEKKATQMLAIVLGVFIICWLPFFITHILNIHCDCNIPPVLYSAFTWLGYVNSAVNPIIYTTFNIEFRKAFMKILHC
Sequence of 5-HT1A receptor (P08908 whole entry): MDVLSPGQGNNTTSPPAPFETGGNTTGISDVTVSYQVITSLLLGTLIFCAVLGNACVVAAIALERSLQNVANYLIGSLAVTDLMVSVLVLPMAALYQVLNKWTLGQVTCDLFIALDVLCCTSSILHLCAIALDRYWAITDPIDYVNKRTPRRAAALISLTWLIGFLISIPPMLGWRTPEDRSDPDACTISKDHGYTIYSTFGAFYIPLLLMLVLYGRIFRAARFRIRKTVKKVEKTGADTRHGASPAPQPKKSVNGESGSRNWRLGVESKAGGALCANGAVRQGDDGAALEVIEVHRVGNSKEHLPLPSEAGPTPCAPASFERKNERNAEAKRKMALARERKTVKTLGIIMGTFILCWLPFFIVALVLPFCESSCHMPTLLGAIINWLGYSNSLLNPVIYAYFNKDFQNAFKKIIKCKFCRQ
T1 sequence (P14416 whole entry, species assumed): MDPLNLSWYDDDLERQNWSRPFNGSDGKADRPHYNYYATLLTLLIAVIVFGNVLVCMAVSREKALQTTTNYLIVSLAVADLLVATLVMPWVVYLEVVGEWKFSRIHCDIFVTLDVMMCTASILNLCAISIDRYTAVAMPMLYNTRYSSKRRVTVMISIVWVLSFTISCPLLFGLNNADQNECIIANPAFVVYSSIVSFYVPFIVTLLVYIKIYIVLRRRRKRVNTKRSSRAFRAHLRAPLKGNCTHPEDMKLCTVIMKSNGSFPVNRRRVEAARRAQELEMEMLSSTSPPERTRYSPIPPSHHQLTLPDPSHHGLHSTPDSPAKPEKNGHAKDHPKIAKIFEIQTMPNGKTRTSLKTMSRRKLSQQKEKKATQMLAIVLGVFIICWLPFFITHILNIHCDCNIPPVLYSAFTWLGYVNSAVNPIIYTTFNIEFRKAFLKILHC
Sequence of 5-HT2A receptor (P28223 whole entry): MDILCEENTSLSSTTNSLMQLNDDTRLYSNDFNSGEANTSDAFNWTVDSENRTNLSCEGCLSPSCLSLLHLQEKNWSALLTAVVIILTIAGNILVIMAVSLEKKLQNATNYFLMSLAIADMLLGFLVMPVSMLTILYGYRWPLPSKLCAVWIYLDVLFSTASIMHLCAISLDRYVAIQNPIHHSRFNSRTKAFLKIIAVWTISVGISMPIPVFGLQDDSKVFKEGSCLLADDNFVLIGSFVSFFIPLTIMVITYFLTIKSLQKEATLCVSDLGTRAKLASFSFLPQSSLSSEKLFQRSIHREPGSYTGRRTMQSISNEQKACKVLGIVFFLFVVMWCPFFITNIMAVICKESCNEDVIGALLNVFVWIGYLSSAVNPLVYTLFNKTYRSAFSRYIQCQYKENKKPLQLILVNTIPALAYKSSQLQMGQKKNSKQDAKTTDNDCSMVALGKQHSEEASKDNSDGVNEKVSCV
Sequence of D1 receptor (P21728 whole entry): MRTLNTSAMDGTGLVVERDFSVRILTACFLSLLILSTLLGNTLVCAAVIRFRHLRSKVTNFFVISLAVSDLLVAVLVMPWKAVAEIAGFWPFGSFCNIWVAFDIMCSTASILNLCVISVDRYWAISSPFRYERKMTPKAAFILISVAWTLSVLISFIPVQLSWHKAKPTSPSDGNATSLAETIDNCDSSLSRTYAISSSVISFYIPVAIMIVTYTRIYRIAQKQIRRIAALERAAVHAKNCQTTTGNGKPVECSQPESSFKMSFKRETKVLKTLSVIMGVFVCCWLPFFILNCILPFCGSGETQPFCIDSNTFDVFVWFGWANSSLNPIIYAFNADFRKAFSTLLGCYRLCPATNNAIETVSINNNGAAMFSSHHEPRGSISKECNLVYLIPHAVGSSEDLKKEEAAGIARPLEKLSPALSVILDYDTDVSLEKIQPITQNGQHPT
Sequence of dopamine D1 receptor (O77680 whole entry): as the sequence (P21728 whole entry) above, with N311I counted along it
Sequence of D1 dopamine receptors (P21728 whole entry): as the sequence (P21728 whole entry) above

Structure (SMILES)	D2 receptor inhibition ratio (%) (D2 dopamine receptor)	IC50 (D2 dopamine receptor)	Ki (D2 dopamine receptor)	IC50 (dopamine D2 receptor [1])	D1 receptor inhibition ratio (%) (dopamine D1 receptor)	IC50 (dopamine D1 receptor)	Ki (dopamine D1 receptor)	affinity on dopamine D2 receptor (in words) (D2 dopamine receptor)	D1 antagonist Imax % (D1 receptor; [35S]GTPγS binding)	IC50 (D1 receptor; [35S]GTPγS binding, read-out: D1 antagonist IC50)	D1 receptor antagonistic activity (in words) (D1 receptor; summary of Table 10)	D1 receptor selectivity (in words) (D1 receptor; summary of Table 10)	5-HT1A receptor inhibition ratio (%) (5-HT1A receptor)	IC50 (5-HT1A receptor)	Ki (5-HT1A receptor)	Ki (D1 dopamine receptors)	affinity on dopamine D1 receptor (in words) (dopamine D1 receptor)	D2 Inhibition (%) (dopamine D2 receptor [2])	5-HT2A receptor inhibition ratio (%) (5-HT2A receptor)	oral bioavailability [3]
COc1cc2c(cc1OC)[C@@H]1Cc3c(OC)ccc(OC)c3CN1CC2 [DC037008, S-(−)-2,3,9,12-tetramethoxy-5,8,13,13a-tetrahydro-6H-dibenzo[a,g]quinolizine]	92.8%	1730 nM	334 nM	4030 nM	101.0%	101 nM	50.1 nM													
COc1cc2c(cc1OC)[C@@H]1Cc3cc(C)cc(C)c3CN1CC2 [DC037017, S-(−)-2,3-bimethoxy-9,11-dimethyl-5,8,13,13a-tetrahydro-6H-dibenzo[a,g]quinolizine]	97.4%	1160 nM	224 nM	16200 nM	94.5%	684 nM	338 nM													
COc1cc2c(cc1O)[C@@H]1Cc3c(OC)ccc(OC)c3CN1CC2 [DC037030, S-(−)-2-hydroxy-3,9,12-trimethoxy-5,8,13,13a-tetrahydro-6H-dibenzo[a,g]quinolizine]	74.27%				99.89%	7.22 nM	3.7 nM	strong affinity	86.8 ± 1.6%	1900 ± 400 nM	D1 receptor antagonistic activity	good D1 receptor selectivity	80.41%	626 nM	493 nM	3.7 ± 0.26 nM	strong affinity	74.27%	39.99%	
COc1ccc(OC)c2c1C[C@H]1c3cc4c(cc3CCN1C2)OCCO4 [DC037032]	28.67%				99.21%	49.2 nM	25.2 nM	strong affinity					95.36%	51.5 nM	40.6 nM		strong affinity		37.75%	
COc1cc2c(c(OC)c1)CN1CCc3cc(OC)c(OC)cc3[C@@H]1C2 [DC037075, (S)-2,3,9,11-tetramethoxy-5,8,13,13a-tetrahydro-6H-dibenzo[a,g]quinolizine]	39.50%				97.88%	114 nM	64.1 nM						90.77%	922 nM	730 nM				54.04%	
COc1cc(OC)c2c(c1CO)C[C@H]1c3cc4c(cc3CCN1C2)OCO4 [DC037077, (S)-2,3-methylenedioxy-9,11-bimethoxy-12-hydroxymethyl-5,8,13,13a-tetrahydro-6H-dibenzo[a,g]quinolizine]	41.75%				97.33%	324 nM	182 nM						88.63%	758 nM	600 nM				45.63%	
COc1cc2c(cc1O)[C@@H]1Cc3ccc(O)c(OC)c3CN1CC2 [l-SPD, l-Stepholidine]																				6.83%
